Assay results reported in the supplement of paper PMC10307832.

Experiments:
Assay in all cases: relative viability (nuclei count vs DMSO), 5 days (fraction); higher = more cells survive
GSK126 + Linsitinib = compound: CC[C@H](C)N1C=C(C2=C(C=C(C=C21)C3=CN=C(C=C3)N4CCNCC4)C(=O)NCC5=C(C=C(NC5=O)C)C)C [GSK126] + C[C@]1(O)C[C@@H](c2nc(-c3ccc4ccc(-c5ccccc5)nc4c3)c3c(N)nccn32)C1 [Linsitinib] (partner 1 µM)
Procedure, shortened: (§1)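 Nuclei were stained with Hoechst during a one-step fixation (final 0.05% Triton X-100, 1% formaldehyde, 1 ug/ml Hoechst) carried out 5 days after dosing, then counted on 4× images. The cells, lung cancer lines in 1536-well plates, had been dosed by pin tool the day after seeding with one drug alone or a fixed anchor-drug dose plus five library-drug doses (not always all listed) in √10 steps. Relative viability is the nuclei count in treated wells divided by that in vehicle wells, and each value is the median of duplicate plates.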

MLN4924 + Pemetrexed = compound: NS(=O)(=O)OC[C@@H]1C[C@@H](n2ccc3c(N[C@H]4CCc5ccccc54)ncnc32)C[C@@H]1O [MLN4924] + Nc1nc2[nH]cc(CCc3ccc(C(=O)N[C@@H](CCC(=O)O)C(=O)O)cc3)c2c(=O)[nH]1 [Pemetrexed] (partner 0.2 µM)
Procedure, shortened: as §1

MLN4924 + AZD7762 = compound: NS(=O)(=O)OC[C@@H]1C[C@@H](n2ccc3c(N[C@H]4CCc5ccccc54)ncnc32)C[C@@H]1O [MLN4924] + NC(=O)Nc1cc(-c2cccc(F)c2)sc1C(=O)N[C@H]1CCCNC1 [AZD7762] (partner 0.2 µM)
Procedure, shortened: as §1

MLN4924 + OSI-027 = compound: NS(=O)(=O)OC[C@@H]1C[C@@H](n2ccc3c(N[C@H]4CCc5ccccc54)ncnc32)C[C@@H]1O [MLN4924] + COc1cccc2cc(-c3nc([C@H]4CC[C@H](C(=O)O)CC4)n4ncnc(N)c34)[nH]c12 [OSI-027] (partner 0.5 µM)
Procedure, shortened: as §1

Cell Line | relative viability (GSK126 + Linsitinib; first compound 0.08 µM) | relative viability (GSK126 + Linsitinib; first compound 0.253 µM) | relative viability (GSK126 + Linsitinib; first compound 0.8 µM) | relative viability (GSK126 + Linsitinib; first compound 2.53 µM) | relative viability (GSK126 + Linsitinib; first compound 8 µM) | relative viability (MLN4924 + Pemetrexed; first compound 0.04 µM) | relative viability (MLN4924 + Pemetrexed; first compound 0.1265 µM) | relative viability (MLN4924 + Pemetrexed; first compound 0.4 µM) | relative viability (MLN4924 + Pemetrexed; first compound 1.265 µM) | relative viability (MLN4924 + Pemetrexed; first compound 4 µM) | relative viability (MLN4924 + AZD7762; first compound 0.04 µM) | relative viability (MLN4924 + AZD7762; first compound 0.1265 µM) | relative viability (MLN4924 + AZD7762; first compound 0.4 µM) | relative viability (MLN4924 + AZD7762; first compound 1.265 µM) | relative viability (MLN4924 + AZD7762; first compound 4 µM) | relative viability (MLN4924 + OSI-027; first compound 0.04 µM) | relative viability (MLN4924 + OSI-027; first compound 0.1265 µM) | relative viability (MLN4924 + OSI-027; first compound 0.4 µM) | relative viability (MLN4924 + OSI-027; first compound 1.265 µM) | relative viability (MLN4924 + OSI-027; first compound 4 µM)
LCLC-103H | 1.13 | 1.16 | 1.06 | 1.07 | 1.08 | 0.477 | 0.504 | 0.285 | 0.315 | 0.329 | 0.831 | 0.833 | 0.7 | 0.239 | 0.247 | 0.467 | 0.491 | 0.539 | 0.178 | 0.156
EKVX | 1.04 | 1.12 | 0.918 | 1.01 | 0.885 | 0.45 | 0.411 | 0.316 | 0.23 | 0.174 | 0.854 | 0.784 | 0.674 | 0.314 | 0.232 | 0.71 | 0.712 | 0.622 | 0.214 | 0.175
201T | 1.04 | 1.11 | 1.06 | 1.07 | 1.18 | 0.291 | 0.312 | 0.315 | 0.287 | 0.257 | 0.822 | 0.624 | 0.391 | 0.235 | 0.242 | 0.824 | 0.857 | 0.46 | 0.139 | 0.115
NCI-H1395 | 1.26 | 1.01 | 0.991 | 0.998 | 1.08 | 0.847 | 0.773 | 0.678 | 0.349 | 0.305 | 0.493 | 0.416 | 0.383 | 0.408 | 0.331 | 0.641 | 0.606 | 0.602 | 0.349 | 0.39
NCI-H2347 | 1.04 | 0.943 | 0.916 | 0.885 | 0.965 | 0.376 | 0.438 | 0.369 | 0.396 | 0.36 | 0.904 | 0.834 | 0.536 | 0.252 | 0.242 | 0.39 | 0.375 | 0.354 | 0.214 | 0.29
LXF-289 | 1.02 | 1 | 0.995 | 0.915 | 1 | 0.814 | 0.77 | 0.567 | 0.177 | 0.116 | 1.06 | 0.775 | 0.691 | 0.113 | 0.0848 | 0.833 | 0.713 | 0.569 | 0.165 | 0.13
EMC-BAC-2 | 0.798 | 0.841 | 0.771 | 0.824 | 0.839 | 0.491 | 0.537 | 0.42 | 0.255 | 0.277 | 1.06 | 0.869 | 0.377 | 0.224 | 0.288 | 0.383 | 0.36 | 0.197 | 0.194 | 0.243
LC-2-ad | 0.874 | 0.905 | 0.849 | 0.899 | 0.839 | 0.288 | 0.27 | 0.257 | 0.218 | 0.221 | 0.376 | 0.9 | 0.837 | 0.376 | 0.236 | 0.952 | 0.727 | 0.439 | 0.224 | 0.262
